Source: patent publication US9687545B2, “Nonspecific immunostimulator composition, method of preparation the same, and its use” (BARODON-S.F.CORP., priority 2014, dated 2017)
Where two headings read alike, the source gives them in different places.

Test system: highly pathogenic AIV H5N1
Assay type: in vivo, BALB/C mice
Settings: for body weight change after challenge: challenged groups treated with BARODON or TamiFlu, 2 weeks

Compound: CCOC(=O)C1=C[C@@H](OC(CC)CC)[C@H](NC(C)=O)[C@@H](N)C1 [TamiFlu]
- survival rate (TamiFlu 10 mg/kg/day orally for 5 days after challenge, by D12): 75%
- body weight change after challenge: none of the groups treated with TamiFlu and BARODON exhibited weight gain after challenge
- body weight change after challenge (listed as TamiFlue): no difference in weight change between groups
